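Method: 48-hour compound exposure of cells in 96-well plates, five concentrations, linear interpolation of endpoints. At the GI50, growth is halved. Definition used: TGI = concentration required for complete inhibition of growth.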
What follows are compounds tested on RXF 393 renal (assay: DTP human tumour cell line panel, 48 h).

| Compound | TGI | GI50 |
| --- | --- | --- |
| COc1cc(/C=C2\[C@H]3c4c(c(OC)c(C)c(OC)c4OC)CC(C(=O)N2Cc2ccccc2)N3C)c(OC)c(C)c1OC | > 100 µM | – |
| CC1(C)CN=C(NN=C(/C=C/c2ccc(C(F)(F)F)cc2)/C=C/c2ccc(C(F)(F)F)cc2)NC1 | 2.73 µM | 1.33 µM |
| COc1cc(/C=C\c2cc(OC)c(OC)c(OC)c2)cc(N/C=C\C(=O)c2c[nH]c3ccccc23)c1OC | 3.38 µM | 1.69 µM |
| CCCCCCCCCCNC(=O)CI | 3.53 µM | 1.74 µM |
| Cc1cc(N/N=C/c2ccccn2)nc2ccccc12 | 4.87 µM | 0.321 µM |
| O=C(N/C(=C\c1ccc([N+](=O)[O-])cc1)c1nc2ccccc2[nH]1)c1ccccc1 | > 100 µM | – |
| COC(=O)/C([Se]c1c(C)cc(C)cc1C)=C(/[Se]c1c(C)cc(C)cc1C)C(=O)OC | > 100 µM | – |
| CC(C)(C)[Si](C)(C)OC1[C@@H](CNC(=O)NC(=O)CCl)O[C@@H](n2cnc3c(N)ncnc32)[C@H]1O[Si](C)(C)C(C)(C)C (stereo partly specified) | 1.58 µM | 0.859 µM |
| NC(=O)C(=O)CC(=O)c1ccccc1NC1=CC(=O)C(=O)c2ccccc21 | > 100 µM | – |
| Cc1cc2c(c(C(N)=O)c1C)-c1ccccc1C2=O | > 100 µM | – |
| Cc1ccccc1C1=[N+]([O-])c2ccc(Cl)cc2C1=O | 34.9 µM | – |
| c1coc(-c2c3ccc(=[N+]4CCCCC4)cc-3oc3cc(N4CCCCC4)ccc23)c1 | 0.228 µM | 0.0437 µM |
| Cc1[nH]c2ccccc2c1C1Cc2ccccc2N1C(=O)C#Cc1ccc([N+](=O)[O-])cc1 (stereo unspecified) | > 100 µM | – |
| Cn1c(=O)nc2n(-c3cc(C(F)(F)F)cc(C(F)(F)F)c3)c3ccccc3nc-2c1=O | > 100 µM | – |

What follows are compounds tested on EKVX NSCLC (assay: DTP human tumour cell line panel, 48 h).

| Compound | GI50 | TGI |
| --- | --- | --- |
| O=C1CCCN1c1ccccc1I(=O)=O | > 100 µM | > 100 µM |
| Nc1ccccc1C(=O)/C=C/c1c(O)ccc2ccccc12 | – | > 100 µM |
| CCC1CN2CCc3cc(OC)c(OC)cc3C2CC1CC1c2cc(OC)c(OC)cc2CCN1C(=O)C1CCCN1 (stereo unspecified) | – | > 100 µM |
| CC(C(=O)c1ccc(Cl)cc1)/C(=N/NC(=O)NN)C(=O)Nc1cccc(C(F)(F)F)c1 (stereo unspecified) | – | > 100 µM |
| CCOP(=O)(OCC)C(C(=O)OC)C(=O)C(=O)Nc1ccc(Cl)cc1Cl (stereo unspecified) | – | > 100 µM |
| CC(C)=C1CCC(CN(C)C)C1=O (stereo unspecified) | – | 31.9 µM |
| COc1cccc(/C=N/[N-]C(=O)c2ccncc2)c1[O-].COc1cccc(/C=N/[N-]C(=O)c2ccncc2)c1[O-].[O]=[U](=[O])([OH2+])[OH2+] | 2.86 µM | > 100 µM |
| CC(C)(C)c1ccc2c(c1)S(=O)(=O)Nc1ccc(Cl)cc1NS(=O)(=O)c1cc(C(C)(C)C)ccc1OCCOCCOCCO2 | – | > 100 µM |
| N#CC(=Nc1ccccc1N(C(=O)c1ccccc1)C(=O)c1ccccc1)c1ccccc1 | – | > 100 µM |
| COc1c(C)n(CCO)ccc1=O | – | > 100 µM |
| COC(=O)C(=O)C(C(C)=O)C(=O)NCc1ccc(OC)c(OC)c1 (stereo unspecified) | – | > 100 µM |
| Nc1c(-c2ccccc2-c2c(N)[n+]([O-])c3ccccc3[n+]2[O-])[n+]([O-])c2ccccc2[n+]1[O-] | – | 57.1 µM |
| CCOC(=O)NC(=O)c1cn(C(CC)COC(=O)NCCCCCCNC(=O)OCC(CC)n2cc(C(=O)NC(=O)OCC)c(=O)[nH]c2=O)c(=O)[nH]c1=O (stereo unspecified) | – | > 100 µM |
| O=C(CC(=O)C1CCOC1=O)C(=O)Nc1cccc(Cl)c1 (stereo unspecified) | – | > 100 µM |
| Cc1cccc(C2=C/C(=C(\SS/C(C(=O)c3ccc(OCC(=O)O)c(Cl)c3Cl)=C3\C=C(c4cccc(C)c4)SS3)C(=O)c3ccc(OCC(=O)O)c(Cl)c3Cl)SS2)c1 | – | > 100 µM |
| O=C(Cc1nc2c3c(ccc2[nH]c1=O)C(=O)c1ccccc1C3=O)C(=O)Nc1ccccc1[N+](=O)[O-] | – | 36.7 µM |
| Nc1nc(-c2ccc(Cl)c([N+](=O)[O-])c2)cs1 | – | > 100 µM |
| COc1cc(/C=C2\[C@H]3c4c(c(OC)c(C)c(OC)c4OC)CC(C(=O)N2Cc2ccccc2)N3C)c(OC)c(C)c1OC | – | 67.6 µM |
| O=C(N/C(=C\c1ccc([N+](=O)[O-])cc1)c1nc2ccccc2[nH]1)c1ccccc1 | – | > 100 µM |
| COC(=O)/C([Se]c1c(C)cc(C)cc1C)=C(/[Se]c1c(C)cc(C)cc1C)C(=O)OC | – | > 100 µM |
| NC(=O)C(=O)CC(=O)c1ccccc1NC1=CC(=O)C(=O)c2ccccc21 | – | > 100 µM |
| Cc1cc2c(c(C(N)=O)c1C)-c1ccccc1C2=O | – | > 100 µM |
| COC(=O)/C(=N/O)C(C(=O)C=C(C)C)C(=O)C(=O)Nc1nc2ccc([N+](=O)[O-])cc2s1 (stereo unspecified) | – | 57.8 µM |
| Cc1ccccc1C1=[N+]([O-])c2ccc(Cl)cc2C1=O | – | 25 µM |
| Cc1[nH]c2ccccc2c1C1Cc2ccccc2N1C(=O)C#Cc1ccc([N+](=O)[O-])cc1 (stereo unspecified) | – | > 100 µM |
| CCOC(=O)NC(=O)c1cn(C2CCCCC2)c(=O)[nH]c1=O | – | > 100 µM |
| Cn1c(=O)nc2n(-c3cc(C(F)(F)F)cc(C(F)(F)F)c3)c3ccccc3nc-2c1=O | – | > 100 µM |

The compounds below were run on SN12C renal (assay: DTP human tumour cell line panel, 48 h).

| Compound | GI50 | TGI |
| --- | --- | --- |
| O=C1CCCN1c1ccccc1I(=O)=O | > 100 µM | > 100 µM |
